Molecular target: human IDO1 (Homo sapiens, UniProt P14902)
Experiment: Assessment of human IDO-1 inhibitory activity in Hela cells (Interferon-gamma stimulated HeLa cells, Ehrlich reagent, absorbance 490 nm)
Assay type: cell-based
Design: endogenous in cells; host or cells: HeLa cells stimulated with interferon-gamma
Settings: Hela Human IDO-1 cellular assay
How it was run: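 HeLa cells pre-incubated with compound 1 h at 37 °C, then stimulated with human IFN-γ (10 ng/ml final) or murine IFN-γ (5 ng/ml final) for 18 h. Kynurenine read with Ehrlich reagent at 490 nm after TCA (3%) and 50 °C treatment; IC50 normalized to unstimulated (100%) and IFN-γ-only (0%) wells.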

human IDO1, sequence (P14902 whole entry): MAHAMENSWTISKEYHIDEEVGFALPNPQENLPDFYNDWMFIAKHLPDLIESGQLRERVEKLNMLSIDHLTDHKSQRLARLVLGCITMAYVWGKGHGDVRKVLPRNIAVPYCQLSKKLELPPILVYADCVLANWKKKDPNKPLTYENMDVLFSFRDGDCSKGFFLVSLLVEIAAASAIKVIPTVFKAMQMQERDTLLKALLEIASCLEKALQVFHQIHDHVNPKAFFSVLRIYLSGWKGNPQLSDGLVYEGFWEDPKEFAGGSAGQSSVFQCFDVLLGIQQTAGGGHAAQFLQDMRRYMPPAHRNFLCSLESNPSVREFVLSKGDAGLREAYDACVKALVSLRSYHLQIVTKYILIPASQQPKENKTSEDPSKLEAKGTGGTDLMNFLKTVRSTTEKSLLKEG

Row | Compound | IC50 [nM]
1 | (R)-3-(3-((4-chlorophenyl)amino)-4-((1,1-dioxidotetrahydro-2H- thiopyran-4-yl)(ethyl)amino) phenyl)-4-isopropoxybutanoic acid [Example 330] | < 5
2 | CCCN(c1ccc([C@H](COC)CC(=O)O)cc1Nc1ccc2nc(C)sc2c1)C1CCOCC1 (single isomer, unassigned) [Example 570] | < 50
3 | COCC(CC(=O)O)c1ccc(N2C[C@@H](C)O[C@@H](C)C2)c(Nc2ccc(C#N)cc2)c1 (single isomer, unassigned) [602 E1] | > 50
4 | CCN(c1ccc([C@H](COC)CC(=O)O)cc1NC(=O)Nc1ccc(F)cc1F)C1CCOCC1 (single isomer, unassigned) [Example 442] | > 50
5 | CCCN(c1ccc(C(COC)CC(=O)O)cc1Nc1ccc(Cl)cc1)C1CCS(=O)(=O)CC1 (single isomer, unassigned) [Example 183, 3-(3-((4-chlorophenyl)amino)-4-((1,1-dioxidotetrahydro-2H-thiopyran-4-yl)(propyl)amino)phenyl)-4-methoxybutanoic acid] | < 50
6 | CCCN(c1ccc(C(C)(C)CC(=O)O)cc1Nc1cnc(OCC)nc1)C1CCOCC1 [Example 24, 3-(3-((2-ethoxypyrimidin-5-yl)amino)-4-(propyl(tetrahydro-2H-pyran-4-yl)amino)phenyl)-3-methylbutanoic acid] | < 50
7 | CCCN(c1ccc(C(CC)CC(=O)O)cc1Nc1ccc(C#N)cc1)C1CCS(=O)(=O)CC1 (single isomer, unassigned) [Example 12 Enantiomer 1, 3-(3-((4-Cyanophenyl)amino)-4-((1,1-dioxidotetrahydro-2H-thiopyran-4-yl)(propyl)amino)phenyl)pentanoic acid] | < 5
8 | CCN(c1ccc([C@H](COC)CC(=O)O)cc1Nc1ccc(C(F)(F)F)cc1)C1CCOCC1 [Example 401] | < 5
9 | COCCN(c1ccc(C(C)(C)CC(=O)O)cc1NC(=O)Nc1ccc(C)cc1)C1CCOCC1 [Example 18, 3-(4-((2-Methoxyethyl)(tetrahydro-2H-pyran-4-yl)amino)-3-(3-(p-tolyl)ureido)phenyl)-3-methylbutanoic acid] | > 50
10 | CCOc1ccc(Nc2cc(C(C)CC(=O)O)ccc2N(CC)C2CCOCC2)nn1 (single isomer, unassigned) [Example 624, 3-(3-((6-ethoxypyridazin-3-yl)amino)-4-(ethyl (tetrahydro-2H-pyran-4-yl)amino)phenyl)butanoic acid] | > 50
11 | CCC(CC(=O)O)c1cc(F)c(N(CC)C2CCOCC2)c(Nc2cnc(OCC3CC3)nc2)c1 (single isomer, unassigned) [Example 141, 3-(3-((2-(cyclopropylmethoxy)pyrimidin-5-yl)amino)-4-(ethyl(tetrahydro-2H-pyran-4-yl)amino)-5-fluorophenyl)pentanoic acid] | < 5
12 | CC[C@@H](CC(=O)O)c1ccc(N(CC2CC2)CC(C)(C)O)c(Nc2ccc(C#N)cc2)c1 (single isomer, unassigned) [Example 268] | < 5
13 | CCN(c1ccc([C@@H](COC)CC(=O)O)cc1NC(=O)Nc1ccc(F)cc1F)C1CCOCC1 (single isomer, unassigned) [Example 431] | > 50
14 | CCN(c1ccc([C@@H](COC)CC(=O)O)cc1Nc1ccc(C#N)cn1)C1CCOCC1 (single isomer, unassigned) [Example 352] | < 50
15 | CCC(CC(=O)O)c1ccc(N2CCOCC2)c(NC(=O)Nc2ccc(C)cc2)c1 (single isomer, unassigned) [Example 8 Enantiomer 1, 3-(4-Morpholino-3-(3-(p-tolyl)ureido)phenyl)pentanoic acid] | > 50
16 | CCN(c1ccc([C@@H](COC)CC(=O)O)cc1Nc1ccc(S(=O)(=O)CC)cc1)C1CCOCC1 (single isomer, unassigned) [Example 386] | > 50
17 | CCN(c1ccc([C@@H](COC)CC(=O)O)cc1Nc1ccc(Cl)cc1F)C1CCOCC1 (single isomer, unassigned) [Example 362] | < 5
18 | CCN(c1ccc(C(COC)CC(=O)O)cc1Nc1ccc(Cl)cc1)C1CCS(=O)(=O)CC1 (single isomer, unassigned) [Example 174, 3-(3-((4-chlorophenyl)amino)-4-((1,1-dioxidotetrahydro-2H-thiopyran-4-yl)(ethyl)amino)phenyl)-4-methoxybutanoic acid] | < 50

The next lines start with the values.

Row | IC50 [nM] | Compound
19 | < 5 | CCC(CC(=O)O)c1ccc(N2CCOC[C@H]2C(C)C)c(Nc2ccc(C#N)cc2)c1 (single isomer, unassigned) [Example 887]
20 | < 5 | CCOc1ncc(Nc2cc([C@H](CC)Cc3nnn[nH]3)ccc2N(CC)C2CCOCC2)cn1 [Example 1339, (R)-4-(1-(1H-Tetrazol-5-yl)butan-2-yl)-N2-(2-ethoxypyrimidin-5-yl)-N1-ethyl-N1-(tetrahydro-2H-pyran-4-yl)benzene-1,2-diamine]
21 | < 5 | CCC(CC(=O)O)c1cc(Nc2cnc(OCC3CC3)nc2)c(N(CC)C2CCOCC2)cc1F (single isomer, unassigned) [Example 858, 3-(5-((2-(cyclopropyl-methoxy)pyrimidin-5-yl)amino)-4-(ethyl(tetra-hydro-2H-pyran-4-yl)amino)-2-fluorophenyl) pentanoic acid]
22 | > 50 | CCC1COCCN1c1ccc([C@@H](COC)CC(=O)O)cc1Nc1ccc(C#N)cn1 (single isomer, unassigned) [Example 1283]
23 | > 50 | CCC1COCCN1c1ccc([C@H](COC)CC(=O)O)cc1Nc1ccc(F)cn1 (single isomer, unassigned) [Example 1294]
24 | > 50 | CCC(CC(=O)O)c1ccc(N(C)C2CCOCC2)c(Nc2cnc(OC)nc2)c1 (single isomer, unassigned) [Example 871, 3-(3-((2-methoxy-pyrimidin-5-yl)amino)-4-(methyl(tetra-hydro-2H-pyran-4-yl)amino)phenyl) pentanoic acid]
25 | > 50 | CCC1COCCN1c1ccc([C@H](COC)CC(=O)O)cc1Nc1ccc(F)cc1 (single isomer, unassigned) [Example 1293]
26 | < 5 | CCN(c1cc(F)c(C(COC)CC(=O)O)cc1Nc1ccc(C#N)cc1F)C1CCOCC1 (single isomer, unassigned) [Example 847, 3-(5-((4-cyano-2-fluorophenyl)amino)-4-(ethyl (tetrahydro-2H-pyran-4-yl)amino)-2-fluorophenyl)-4-methoxybutanoic acid]
27 | > 50 | COCC(CC(=O)O)c1ccc(N(CC2CC2)C2CCOCC2)c(Nc2ccc(C(N)=O)nc2)c1 (single isomer, unassigned) [Example 693, 3-(3-((6-carbamoylpyridin-3-yl)amino)-4-((cyclopropylmethyl) (tetrahydro-2H-pyran-4-yl)amino)phenyl)-4-methoxybutanoic acid]
28 | > 50 | COCC(CC(=O)O)c1ccc(N2CCOC[C@@H]2C(C)C)c(NC(=O)Nc2ccc(C#N)cc2)c1 (single isomer, unassigned) [Example 932]
29 | > 50 | CCN(c1ccc([C@@H](CC(=O)O)C(F)(F)F)cc1NC(=O)Nc1ccc(C#N)cc1)C1CCOCC1 (single isomer, unassigned) [Example 1271]
30 | > 50 | CCNC(=O)NC[C@@H](CC)c1ccc(N(CC)C2CCOCC2)c(Nc2cnc(OCC)nc2)c1 [Example 1366, (S)-1-(2-(3-((2-Ethoxypyrimidin-5-yl)amino)-4-(ethyl(tetrahydro-2H-pyran-4-yl)amino)phenyl)butyl)-3-ethylurea]
